Source: patent EP3212201B1, “NUCLEOSIDE KINASE INHIBITORS” (BCI Pharma, priority 2014, dated 2016)

How the values were obtained:
JAK3 = target: T1, JAK3 (Homo sapiens, UniProt P52333); test: FRET-based coupled-enzyme protein kinase inhibition assay; format: biochemical; conditions: compound at 10 µM, 1% DMSO
T1 sequence (P52333 1-1124): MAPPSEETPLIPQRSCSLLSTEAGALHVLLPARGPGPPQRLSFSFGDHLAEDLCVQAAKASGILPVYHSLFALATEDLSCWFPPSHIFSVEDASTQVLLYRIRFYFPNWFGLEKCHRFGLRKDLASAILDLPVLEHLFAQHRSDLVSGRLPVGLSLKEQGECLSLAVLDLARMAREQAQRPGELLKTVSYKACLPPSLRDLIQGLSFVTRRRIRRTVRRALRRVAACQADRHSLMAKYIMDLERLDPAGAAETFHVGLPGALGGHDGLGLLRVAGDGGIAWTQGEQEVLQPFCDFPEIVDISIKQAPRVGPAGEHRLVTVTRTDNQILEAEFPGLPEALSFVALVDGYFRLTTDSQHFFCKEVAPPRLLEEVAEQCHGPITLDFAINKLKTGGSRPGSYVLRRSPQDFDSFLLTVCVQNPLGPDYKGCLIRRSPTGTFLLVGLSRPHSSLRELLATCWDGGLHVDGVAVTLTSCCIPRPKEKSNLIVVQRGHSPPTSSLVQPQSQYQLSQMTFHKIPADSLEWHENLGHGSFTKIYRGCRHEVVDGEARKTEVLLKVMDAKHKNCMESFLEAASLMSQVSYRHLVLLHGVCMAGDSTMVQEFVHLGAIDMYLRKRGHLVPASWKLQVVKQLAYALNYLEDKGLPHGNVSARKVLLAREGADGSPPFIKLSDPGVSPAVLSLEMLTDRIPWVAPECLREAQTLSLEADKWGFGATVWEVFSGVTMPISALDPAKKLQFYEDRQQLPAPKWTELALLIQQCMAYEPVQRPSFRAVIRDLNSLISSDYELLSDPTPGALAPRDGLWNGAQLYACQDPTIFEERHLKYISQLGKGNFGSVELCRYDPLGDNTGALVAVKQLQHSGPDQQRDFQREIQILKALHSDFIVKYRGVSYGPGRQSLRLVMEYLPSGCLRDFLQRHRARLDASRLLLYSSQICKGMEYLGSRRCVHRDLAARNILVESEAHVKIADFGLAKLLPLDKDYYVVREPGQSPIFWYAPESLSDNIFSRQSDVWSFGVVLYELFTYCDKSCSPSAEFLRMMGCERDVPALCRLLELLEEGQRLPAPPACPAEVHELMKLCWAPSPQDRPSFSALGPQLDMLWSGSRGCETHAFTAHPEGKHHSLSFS
Description: (§1) A biochemical assay was then performed in order to measure the protein kinase inhibition. It employed a fluorescence-based coupled-enzyme format and was based on the differential sensitivity of phosphorylated and non-phosphorylated peptides to proteolytic cleavage.
(§2) Peptide substrates were labeled with two fluorophores. The two fluorohores used were coumarin (donor) and fluorecein (acceptor), and each of the peptides was bearing one at one end, and one at the other end, which made up fluorescence resonance energy transfer (FRET) pair peptides.
(§3) In a primary reaction, the FRET-peptides were submitted to a phosphorylation reaction, in which one of adenosine triphosphate (ATP)'s phosphate groups was transferred to the peptide in the presence of kinase. When kinase inhibition takes place, the peptide will not be phosphorylated. In a secondary reaction, both the phosphorylated FRET-peptides and the non-phosphorylated FRET-peptides were reacted with a development reagent. It has been observed that non-phosphorylated FRET-peptides were cleaved, whereas the phosphorylted FRET-peptide remained intact.
(§4) Cleavage disrupts FRET between the donor (i.e., coumarin) and acceptor (i.e., fluorescein) fluorophores on the FRET-peptide, whereas uncleaved, phosphorylated FRET-peptides maintain FRET. A ratiometric method, which calculates the Emission Ratio of donor emission to acceptor emission after excitation of the donor fluorophore at 400 nm, is used to quantitate reaction progress, as shown in the equation below. [formula]
(§5) A significant benefit of this ratiometric method for quantitating reaction progress is the elimination of well-to-well variations in FRET-peptide concentration and signal intensities. As a result, the assay yields very high Z'factor values (>0.7) at a low percent phosphorylation. Both cleaved and uncleaved FRET-peptides contribute to the fluorescence signals and therefore to the Emission Ratio. The extent of phosphorylation of the FRET-peptide can be calculated from the Emission Ratio. The Emission Ratio will remain low if the FRET-peptide is phosphorylated (i.e., no kinase inhibition) and will be high if the FRET-peptide is non-phosphorylated (i.e., kinase inhibition).
(§6) The Test Compounds were screened in 1% DMSO. For 10 point titrations, 3-fold serial dilutions were prepared from the starting concentration.
(§7) All Peptide/Kinase Mixtures were diluted to a 2X working concentration in the appropriate Kinase Buffer (50 mM HEPES pH 7.5, 0.01% BRIJ-35, 10 mM MgCl2, 1 mM […]).
(§8) All ATP Solutions were diluted to a 4X working concentration in Kinase Buffer. ATP Km apparent was previously determined using another assay.
(§9) 2.5 µL - 4X Test Compound or 100 nL 100X plus 2.4 µL kinase buffer were mixed together with 2. 5 µL - 2X Peptide/Kinase Mixture and 3. 2.5 µL - 4X ATP Solution.
(§10) The solution was plate-shaked for 30 seconds, then incubated 60 minutes at room temperature for kinase reaction. 5 µL of Development Reagent Solution were then added, followed by a 30-second plate shake and a 60-minute Development Reaction incubation at room temperature. The results were read on a fluorescence plate reader and the data was analyzed.
(§11) The compounds that show the highest Emission Ratio are the ones that also show the highest protein kinase inhibition properties.

AKT1 (PKB alpha) = AKT1 (PKB alpha) (Homo sapiens, UniProt P31749); test: as above; format: biochemical; conditions: compound at 10 µM, 1% DMSO
Sequence of AKT1 (PKB alpha) (P31749 whole entry, species assumed): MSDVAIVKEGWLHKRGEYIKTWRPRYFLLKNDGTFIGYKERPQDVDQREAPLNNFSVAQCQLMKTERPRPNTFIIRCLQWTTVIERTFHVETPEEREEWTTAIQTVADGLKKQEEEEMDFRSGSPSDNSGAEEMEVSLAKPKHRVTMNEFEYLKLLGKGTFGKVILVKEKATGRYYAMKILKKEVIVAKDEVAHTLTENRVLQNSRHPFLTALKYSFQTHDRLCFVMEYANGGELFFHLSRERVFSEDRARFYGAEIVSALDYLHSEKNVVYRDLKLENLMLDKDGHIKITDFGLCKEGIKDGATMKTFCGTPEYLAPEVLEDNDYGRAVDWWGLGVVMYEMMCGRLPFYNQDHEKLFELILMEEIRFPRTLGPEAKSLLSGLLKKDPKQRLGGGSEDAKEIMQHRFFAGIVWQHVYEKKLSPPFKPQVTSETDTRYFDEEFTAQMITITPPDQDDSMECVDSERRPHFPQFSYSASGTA
Description: as §1, §2, §3, §4, §5, §6, §7, §8, §9, §10, §11

| inhibition at 10 µM (JAK3) [%] | inhibition at 10 µM (AKT1 (PKB alpha)) [%] | SMILES |
| --- | --- | --- |
| -2 | 7 | Nc1ncnc2c1ncn2[C@@H]1O[C@H](COC(=O)NC[C@H](O)CO)[C@@H](O)[C@H]1O [Compound C8] |
| -8 | 3 | Nc1ncnc2c1ncn2[C@@H]1O[C@H](COC(=O)N2CCC[C@H]2CO)[C@@H](O)[C@H]1O [Compound C9] |
| -2 | 4 | Nc1ncnc2c1ncn2[C@@H]1O[C@H](COC(=O)N[C@@H]2CCN(Cc3ccccc3)C2)[C@@H](O)[C@H]1O [Compound C10] |
| -2 | 3 | CC(C)N1CCC(NC(=O)OC[C@H]2O[C@@H](n3cnc4c(N)ncnc43)[C@H](O)[C@@H]2O)CC1 [Compound C19] |
| -8 | 0 | Nc1ncnc2c1ncn2[C@@H]1O[C@H](COC(=O)NCCN2CCCC2=O)[C@@H](O)[C@H]1O [Compound C22] |
| 2 | 4 | CN1CCN(CCNC(=O)OC[C@H]2O[C@@H](n3cnc4c(N)ncnc43)[C@H](O)[C@@H]2O)CC1 [Compound C46] |
| -8 | 8 | N#CCCN1CCN(C(=O)OC[C@H]2O[C@@H](n3cnc4c(N)ncnc43)[C@H](O)[C@@H]2O)CC1 [Compound C70] |
| -12 | 4 | CN(C)CCNC(=O)OC[C@H]1O[C@@H](n2cnc3c(N)ncnc32)[C@H](O)[C@@H]1O [Compound C85] |
| -2 | 8 | Nc1ncnc2c1ncn2[C@@H]1O[C@H](COC(=O)N2CCS(=O)(=O)CC2)[C@@H](O)[C@H]1O [Compound C100] |

Further lines, the molecule ahead of its results:

| SMILES | inhibition at 10 µM (JAK3) [%] | inhibition at 10 µM (AKT1 (PKB alpha)) [%] |
| --- | --- | --- |
| Nc1ncnc2c1ncn2[C@@H]1O[C@H](COC(=O)NCCCc2nc3ccccc3[nH]2)[C@@H](O)[C@H]1O [Compound C1] | -2 | -2 |
| C[C@@H](NC(=O)OC[C@H]1O[C@@H](n2cnc3c(N)ncnc32)[C@H](O)[C@@H]1O)c1ccc(Cl)cc1 [Compound C4] | 6 | -2 |
| Nc1ncnc2c1ncn2[C@@H]1O[C@H](COC(=O)N2CCN(Cc3ccccc3)CC2CO)[C@@H](O)[C@H]1O (some centres unmarked) [Compound C13] | 1 | 2 |
| Nc1ncnc2c1ncn2[C@@H]1O[C@H](COC(=O)N2CCN(CCc3ccccc3)CC2)[C@@H](O)[C@H]1O [Compound C26] | -7 | 0 |
| Nc1ncnc2c1ncn2[C@@H]1O[C@H](COC(=O)N2CCC(Cc3ccc(F)cc3)C2)[C@@H](O)[C@H]1O (some centres unmarked) [Compound C66] | 0 | -1 |
| Nc1ncnc2c1ncn2[C@@H]1O[C@H](COC(=O)N2CCN(C(=O)N3CCOCC3)CC2)[C@@H](O)[C@H]1O [Compound C89] | 2 | 2 |
| CS(=O)(=O)N1CC2(CCN(C(=O)OC[C@H]3O[C@@H](n4cnc5c(N)ncnc54)[C@H](O)[C@@H]3O)CC2)c2ccccc21 [Compound C98] | -1 | 2 |
